Source: patent publication US12398107B2, “Fungicidal nitroanilino substituted pyrazoles” (FMC Corporation, priority 2018, dated 2025)

Experiments:
Assay type in all cases: in vivo
Phakopsora pachyrhizi = test: Test D: Asian soybean rust, preventive spray on soybean seedlings; details: 100 = 100% disease control, 0 = no control; for Test D disease control rating (Asian soybean rust) / pest or weed control at 50 ppm: 50 ppm
Procedure, shortened: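 Soybean seedlings sprayed to run-off with compound suspension (ppm, in 50/50 acetone/water with 250 ppm PEG400), inoculated next day with P. pachyrhizi spores, held 24 h saturated at 22°C then 8 days at 22°C. Visual rating 0-100% disease control relative to controls.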

Septoria tritici = test: Test A: wheat leaf blotch, preventive spray on wheat seedlings; details: 100 = 100% disease control, 0 = no control relative to controls; for Test A disease control rating (wheat leaf blotch) / pest or weed control at 50 ppm: 50 ppm
Procedure, shortened: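 Compounds were suspended in acetone/water (50/50) with 250 ppm PEG400 and sprayed to run-off on wheat seedlings. The next day the seedlings were inoculated with Septoria tritici spores, held 48 h at 24 °C in saturated humidity, then 17 days at 20 °C. Disease control was rated 0–100 relative to controls.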

Botrytis cinerea = test: Test E: tomato Botrytis, preventive spray on tomato seedlings; details: 100 = 100% disease control, 0 = no control; for Test E disease control rating (tomato Botrytis) / pest or weed control at 50 ppm: 50 ppm
Procedure, shortened: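 Tomato seedlings sprayed to run-off with compound (ppm) in acetone/water with 250 ppm PEG400, then inoculated next day with B. cinerea spores. Held 48 h at 20 °C in saturated atmosphere, then 3 days at 24 °C. Visual rating 0–100% disease control relative to untreated controls.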

[1] = system: Blumeria graminis f. sp. tritici; test: Test C: wheat powdery mildew, preventive spray on wheat seedlings; details: rated after 8 days, 100 = 100% disease control, 0 = no control; for Test C disease control rating (wheat powdery mildew) / pest or weed control at 50 ppm: 50 ppm
Procedure, shortened: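 Compound dissolved in acetone (3% of final volume), then suspended in 50/50 acetone/water with 250 ppm PEG400 and sprayed to run-off on wheat seedlings. Inoculated next day with B. graminis f. sp. tritici spore dust, kept 8 days at 20° C; visual rating, 100 = full control, 0 = none, relative to controls.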

Alternaria solani = test: Test F: tomato early blight, preventive spray on tomato seedlings; details: 100 = 100% disease control, 0 = no control; for Test F disease control rating (tomato early blight) / pest or weed control at 50 ppm: 50 ppm
Procedure, shortened: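 Compounds in acetone/water (50/50) with 250 ppm PEG400, dosed in ppm, sprayed to run-off on tomato seedlings; next day inoculated with A. solani spores. Held 48 h saturated at 27° C, then 3 days at 20° C; visual rating 0–100% disease control relative to controls.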

[2] = system: Puccinia recondita f. sp. tritici; test: Test B: wheat leaf rust, preventive spray on wheat seedlings; details: 100 = 100% disease control, 0 = no control relative to controls; for Test B disease control rating (wheat leaf rust) / pest or weed control at 50 ppm: 50 ppm
Procedure, shortened: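 Compounds in acetone/water (50/50) with 250 ppm PEG400, sprayed to run-off on wheat seedlings at stated ppm; inoculated next day with P. recondita spores. Held 24 h saturated at 20° C., then 7 days in growth chamber at 20° C.; rating 0–100 = % disease control vs controls.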

[3] = Phakopsora pachyrhizi, read-out: Test D disease control rating (Asian soybean rust)
[4] = Zymoseptoria tritici, read-out: Test A disease control rating (wheat leaf blotch)
[5] = Botrytis cinerea, read-out: Test E disease control rating (tomato Botrytis)
[6] = Blumeria graminis, 192 h, read-out: Test C disease control rating (wheat powdery mildew)
[7] = Alternaria solani, read-out: Test F disease control rating (tomato early blight)
[8] = read-out: Test B disease control rating (wheat leaf rust)

SMILES	Test D disease control rating (Asian soybean rust) (Phakopsora pachyrhizi) [%]	Test A disease control rating (wheat leaf blotch) (Septoria tritici) [%]	Test E disease control rating (tomato Botrytis) (Botrytis cinerea) [%]	Test C disease control rating (wheat powdery mildew) [1] [%]	Test F disease control rating (tomato early blight) (Alternaria solani) [%]	Test B disease control rating (wheat leaf rust) [2] [%]	pest or weed control at 50 ppm (Phakopsora pachyrhizi; [3]) [%]	pest or weed control at 50 ppm (Septoria tritici; [4]) [%]	pest or weed control at 50 ppm (Botrytis cinerea; [5]) [%]	pest or weed control at 50 ppm [1, 6] [%]	pest or weed control at 50 ppm (Alternaria solani; [7]) [%]	pest or weed control at 50 ppm [2, 8] [%]	pest or weed control at 10 ppm (Phakopsora pachyrhizi; Phakopsora pachyrhizi, 10 ppm, read-out: Test D disease control rating (Asian soybean rust)) [%]	pest or weed control at 10 ppm (Septoria tritici; Zymoseptoria tritici, 10 ppm, read-out: Test A disease control rating (wheat leaf blotch)) [%]	pest or weed control at 10 ppm (Botrytis cinerea; Botrytis cinerea, 10 ppm, read-out: Test E disease control rating (tomato Botrytis)) [%]	pest or weed control at 10 ppm ([1]; Blumeria graminis, 192 h, 10 ppm, read-out: Test C disease control rating (wheat powdery mildew)) [%]	pest or weed control at 10 ppm (Alternaria solani; Alternaria solani, 10 ppm, read-out: Test F disease control rating (tomato early blight)) [%]	pest or weed control at 10 ppm ([2]; 10 ppm, read-out: Test B disease control rating (wheat leaf rust)) [%]
Cc1nn(C)c(Nc2ccc(F)cc2[N+](=O)[O-])c1-c1c(Cl)cccc1Cl [Compound 54]	0	100	21	93	0	91												
Cc1nn(C)c(Nc2c(Cl)cc(Br)cc2[N+](=O)[O-])c1-c1ccc(F)cc1F [Compound 55]	0	100	34	90	0	99												
Cc1nn(C)c(Nc2c(F)cc(Br)cc2[N+](=O)[O-])c1-c1ccc(F)cc1F [Compound 56]	65	100	99	100	99	100												
COc1cc(F)c(Nc2c(-c3ccc(F)cc3F)c(C)nn2C)c([N+](=O)[O-])c1 [Compound 57, 4-(2,4-difluorophenyl)-N-(2-fluoro-4-methoxy-6-nitrophenyl)-1,3-dimethyl-1H-pyrazol-5-amine]							96	100	100	100	100	100						
Cc1nn(C)c(Nc2c(F)cc(F)cc2[N+](=O)[O-])c1-c1ccc(F)cc1F [Compound 58]	36	100	99	99	99	100												
Cc1nn(C)c(Nc2c(Cl)cc(Cl)cc2[N+](=O)[O-])c1-c1ccc(F)cc1Cl [Compound 59]	96	100	99	99	92	100												
Cc1nn(C)c(Nc2c(F)cccc2[N+](=O)[O-])c1-c1ccc(F)cc1Br [Compound 60, 4-(2-bromo-4-fluorophenyl)-N-(2-fluoro-6-nitrophenyl)-1,3-dimethyl-1H-pyrazol-5-amine]							97	100	99	100	99	100	0	99	99	85	75	100
Cc1nn(C)c(Nc2c(F)cc(Br)cc2[N+](=O)[O-])c1-c1ccc(F)cc1Cl [Compound 61, N-(4-bromo-2-fluoro-6-nitrophenyl)-4-(2-chloro-4-fluorophenyl)-1,3-dimethyl-1H-pyrazol-5-amine]							84	100	99	99	99	100						
Cc1nn(C)c(Nc2c(F)cccc2[N+](=O)[O-])c1-c1c(F)cc(F)cc1F [Compound 62]	100	100	99	100	99	100												
Cc1nn(C)c(Nc2c(F)cccc2[N+](=O)[O-])c1-c1c(F)cccc1F [Compound 63]	0	100	100	86	96	99												
COc1ccc(-c2c(C)nn(C)c2Nc2c(F)cc(F)cc2[N+](=O)[O-])c(Cl)c1 [Compound 64]	97	100	98	98	99	100												
COc1ccc(-c2c(C)nn(C)c2Nc2c(Cl)cc(Cl)cc2[N+](=O)[O-])c(Cl)c1 [Compound 65]	66	94	16	56	46	89												
COc1ccc(-c2c(C)nn(C)c2Nc2c(Cl)cc(C)cc2[N+](=O)[O-])c(Cl)c1 [Compound 66]	97	100	98	98	96	100												
Cc1nn(C)c(Nc2c(Cl)cc(F)cc2[N+](=O)[O-])c1-c1ccc(F)cc1F [Compound 67]	69	100	98	89	33	100												
